According to patent US8436043B2 (Takeda Pharmaceutical Company Limited, priority 2008, dated 2013):

Molecular target: T1, human glucagon receptor (Homo sapiens, UniProt P47871)
T1 construct: made in house; host or cells: FreeStyle CHO cells, transient transfection with pMSRαneo/hGCGR; membrane fraction (35,000 rpm pellet)
Experiment: Glucagon binding inhibitory activity ([125I]-glucagon binding to glucagon receptor membrane protein)
Settings: human glucagon receptor membrane protein, [125I]-glucagon, 90 min room temperature
Summary of the method: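 Receptor source was a membrane fraction of transiently transfected CHO cells bearing human receptor; 90 min room-temperature binding, filtration harvest, scintillation counting.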

T1 sequence (P47871 26-477): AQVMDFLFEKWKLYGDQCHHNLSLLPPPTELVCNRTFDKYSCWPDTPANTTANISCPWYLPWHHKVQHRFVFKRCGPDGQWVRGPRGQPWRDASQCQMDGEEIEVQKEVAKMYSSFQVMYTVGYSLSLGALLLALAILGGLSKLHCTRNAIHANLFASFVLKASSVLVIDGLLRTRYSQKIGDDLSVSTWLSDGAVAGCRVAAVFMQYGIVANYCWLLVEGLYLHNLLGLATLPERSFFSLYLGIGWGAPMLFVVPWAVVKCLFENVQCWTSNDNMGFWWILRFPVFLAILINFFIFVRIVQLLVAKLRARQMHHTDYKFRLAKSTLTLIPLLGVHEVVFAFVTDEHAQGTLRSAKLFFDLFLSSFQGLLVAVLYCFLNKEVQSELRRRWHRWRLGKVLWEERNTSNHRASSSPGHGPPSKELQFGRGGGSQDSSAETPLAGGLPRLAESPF

How did the IC50 turn out when `Cn1c(C(Nc2ccc(C(=O)NCCC(=O)O)cc2)C2CCCCC2)nc2ccccc21` (stereo not shown) [Example A3, 3-{[(4-{[cyclohexyl(1-methyl-1H-benzimidazol-2-yl)methyl]amino}phenyl)carbonyl]amino}propanoic acid] was run?
Its IC50 is 1.7 µM.

Same assay, conditions: test compound 10 μM; 0.4% DMSO = 0%, non-labeled glucagon 1 μM = 100%; read-out: inhibitory rate (%) at 10 μM

With `COc1cccc2cc(C(Nc3ccc(C(=O)N(C)CCC(=O)O)cc3)C3CCCCC3)oc12` (stereo not shown) [Example A21, 3-{[(4-{[cyclohexyl(7-methoxy-1-benzofuran-2-yl)methyl]amino}phenyl)carbonyl](methyl)amino}propanoic acid] as the molecule, how does the inhibition at 10 µM read?
The inhibition at 10 µM was 62%.

With `Cc1c(C(C)Nc2ccc(C(=O)NCCC(=O)O)cc2)oc2ccc(OCc3ccccc3)cc12` (stereo not shown) [Example A165, 3-({[4-({1-[5-(benzyloxy)-3-methyl-1-benzofuran-2-yl]ethyl}amino)phenyl]carbonyl}amino)propanoic acid] as the molecule, how does the inhibition at 10 µM read?
The inhibition at 10 µM was 85%.

`Cc1nn(-c2ccc(OC(F)(F)F)cc2)cc1C(Nc1ccc(C(=O)N(C)CCC(=O)O)cc1)C1CCCCC1` (stereo not shown) [Example 26, 3-[({4-[(cyclohexyl{3-methyl-1-[4-(trifluoromethoxy)phenyl]-1H-pyrazol-4-yl}methyl)amino]phenyl}carbonyl)(methyl)amino]propanoic acid] was tested. Which inhibition at 10 µM did it give?
The inhibition at 10 µM was 72%.

`COCCOCc1c(C(Nc2ccc(C(=O)NCCC(=O)O)cc2)C2CCCCC2)oc2ccc(F)cc12` (stereo not shown) [Example A132, 3-[({4-[(cyclohexyl{5-fluoro-3-[(2-methoxyethoxy)methyl]-1-benzofuran-2-yl}methyl)amino]phenyl}carbonyl)amino]propanoic acid] was tested. Which inhibition at 10 µM did it give?
Its inhibition at 10 µM is 83%.

How did the inhibition at 10 µM turn out when `COCCCCC(Nc1ccc(C(=O)NCCC(=O)O)cc1)c1oc2ccc(OC)cc2c1C` (stereo not shown) [Example A123, 3-{[(4-{[5-methoxy-1-(5-methoxy-3-methyl-1-benzofuran-2-yl)pentyl]amino}phenyl)carbonyl]amino}propanoic acid] was run?
The inhibition at 10 µM was 71%.

Which inhibition at 10 µM does the source give for `COCCOc1ccc2oc(C(Nc3ccc(C(=O)N(C)CCC(=O)O)cc3)C3CCCCC3)c(C)c2c1` (stereo not shown) [Example A79, 3-[{[4-({cyclohexyl[5-(2-methoxyethoxy)-3-methyl-1-benzofuran-2-yl]methyl}amino)phenyl]carbonyl}(methyl)amino]propanoic acid] here?
Its inhibition at 10 µM is 73%.

With `COc1ccc2oc(C(Nc3ccc(C(=O)NCCC(=O)O)cc3)C3CCCCC3)cc2c1` (stereo not shown) [Example A22, 3-{[(4-{[cyclohexyl(5-methoxy-1-benzofuran-2-yl)methyl]amino}phenyl)carbonyl]amino}propanoic acid] as the molecule, how does the inhibition at 10 µM read?
The inhibition at 10 µM was 66%.

For `Cc1nn(-c2ccc(OC(F)(F)F)cc2)cc1C(Nc1ccc(C(=O)NCCC(=O)O)cc1)C1CCCCC1` (stereo not shown) [Example 25, 3-[({4-[(cyclohexyl{3-methyl-1-[4-(trifluoromethoxy)phenyl]-1H-pyrazol-4-yl}methyl)amino]phenyl}carbonyl)amino]propanoic acid], which inhibition at 10 µM is on record?
The inhibition at 10 µM was 78%.

`Cc1nn(-c2ccc(C(F)(F)F)cc2)cc1C(Nc1ccc(C(=O)NCCC(=O)O)cc1)C1CCCCC1` (stereo not shown) [Example 27, 3-[({4-[(cyclohexyl{3-methyl-1-[4-(trifluoromethyl)phenyl]-1H-pyrazol-4-yl}methyl)amino]phenyl}carbonyl)amino]propanoic acid] was tested. Which inhibition at 10 µM did it give?
Its inhibition at 10 µM is 70%.

For `Cc1c(C(Nc2ccc(C(=O)N(C)CCC(=O)O)cc2)C(C)C)oc2ccc(C3CC3)cc12` (stereo not shown) [Example A184, 3-{[(4-{[1-(5-cyclopropyl-3-methyl-1-benzofuran-2-yl)-2-methylpropyl]amino}phenyl)carbonyl](methyl)amino}propanoic acid], which inhibition at 10 µM is on record?
The inhibition at 10 µM was 74%.

With `COc1cc(OC)cc(-n2cc(C(Nc3ccc(C(=O)N(C)CCC(=O)O)cc3)C3CCCCC3)c(C)n2)c1` (stereo not shown) [Example 81, 3-[{[4-({cyclohexyl[1-(3,5-dimethoxyphenyl)-3-methyl-1H-pyrazol-4-yl]methyl}amino)phenyl]carbonyl}(methyl)amino]propanoic acid] as the molecule, how does the inhibition at 10 µM read?
The inhibition at 10 µM was 82%.

How did the inhibition at 10 µM turn out when `O=C(O)CCNC(=O)c1ccc(NC(c2cn(-c3ccccc3)nc2CCc2ccccc2)C2CCCCC2)cc1` (stereo not shown) [Example 15, 3-({[4-({cyclohexyl[1-phenyl-3-(2-phenylethyl)-1H-pyrazol-4-yl]methyl}amino)phenyl]carbonyl}amino)propanoic acid] was run?
Its inhibition at 10 µM is 72%.

Which inhibition at 10 µM does the source give for `CCOc1cccc(-n2cc(C(Nc3ccc(C(=O)NCCC(=O)O)cc3)C3CCCCC3)c(CC)n2)c1` (stereo not shown) [Example 84, 3-({[4-({cyclohexyl[1-(3-ethoxyphenyl)-3-ethyl-1H-pyrazol-4-yl]methyl}amino)phenyl]carbonyl}amino)propanoic acid] here?
The inhibition at 10 µM was 76%.

Which inhibition at 10 µM does the source give for `CN(CCC(=O)O)C(=O)c1ccc(NC(c2cn(-c3ccc(C(F)(F)F)cn3)nc2C2CC2)C2CCCCC2)cc1` (stereo not shown) [Example 10, 3-[({4-[(cyclohexyl{3-cyclopropyl-1-[5-(trifluoromethyl)pyridin-2-yl]-1H-pyrazol-4-yl}methyl)amino]phenyl}carbonyl)(methyl)amino]propanoic acid] here?
Its inhibition at 10 µM is 76%.

`Cc1c(C(CC(C)C)Nc2ccc(C(=O)N(C)CCC(=O)O)cc2)oc2ccc(OCc3ccccc3)cc12` (stereo not shown) [Example A159, 3-[{[4-({1-[5-(benzyloxy)-3-methyl-1-benzofuran-2-yl]-3-methylbutyl}amino)phenyl]carbonyl}(methyl)amino]propanoic acid] was tested. Which inhibition at 10 µM did it give?
Its inhibition at 10 µM is 74%.

With `Cc1c(C(Nc2ccc(C(=O)NCCC(=O)O)nc2)C2CCCCC2)oc2ccc(F)cc12` (stereo not shown) [Example A55, 3-{[(5-{[cyclohexyl(5-fluoro-3-methyl-1-benzofuran-2-yl)methyl]amino}pyridin-2-yl)carbonyl]amino}propanoic acid] as the molecule, how does the inhibition at 10 µM read?
The inhibition at 10 µM was 90%.

How did the inhibition at 10 µM turn out when `COCCOc1ccc2oc(C(Nc3ccc(C(=O)NCCC(=O)O)cc3)C3CCCCC3)c(C)c2c1` (stereo not shown) [Example A149, 3-[{[4-({cyclohexyl[5-(2-methoxyethoxy)-3-methyl-1-benzofuran-2-yl]methyl}amino)phenyl]carbonyl}amino]propanoic acid] was run?
Its inhibition at 10 µM is 69%.

How did the inhibition at 10 µM turn out when `CCn1nc(-c2ccc(C(F)(F)F)cc2)cc1C(Nc1ccc(C(=O)NCCC(=O)O)cc1)C1CCCCC1` (stereo not shown) [Example 56, 3-[({4-[(cyclohexyl{1-ethyl-3-[4-(trifluoromethyl)phenyl]-1H-pyrazol-5-yl}methyl)amino]phenyl}carbonyl)amino]propanoic acid] was run?
The inhibition at 10 µM was 76%.

For `O=C(O)CCNC(=O)c1ccc(NC(c2cn(-c3ccc(C(F)(F)F)cn3)nc2CCc2ccccc2)C2CCCCC2)cc1` (stereo not shown) [Example 11, 3-[({4-[(cyclohexyl{3-(2-phenylethyl)-1-[5-(trifluoromethyl)pyridin-2-yl]-1H-pyrazol-4-yl}methyl)amino]phenyl}carbonyl)amino]propanoic acid], which inhibition at 10 µM is on record?
Its inhibition at 10 µM is 73%.

Which inhibition at 10 µM does the source give for `COc1ccc2oc(C(Nc3ccc(C(=O)N(C)CCC(=O)O)cc3)C3CCCCC3)c(Br)c2c1` (stereo not shown) [Example A103, 3-{[(4-{[(3-bromo-5-methoxy-1-benzofuran-2-yl)(cyclohexyl)methyl]amino}phenyl)carbonyl](methyl)amino}-propanoic acid] here?
The inhibition at 10 µM was 66%.

How did the inhibition at 10 µM turn out when `COc1cccc(-n2cc(C)c(C(Nc3ccc(C(=O)N(C)CCC(=O)O)cc3)C3CCCCC3)n2)c1` (stereo not shown) [Example 75, 3-[{[4-({cyclohexyl[1-(3-methoxyphenyl)-4-methyl-1H-pyrazol-3-yl]methyl}amino)phenyl]carbonyl}(methyl)amino]propanoic acid] was run?
The inhibition at 10 µM was 61%.

Which inhibition at 10 µM does the source give for `Cc1c(C(Nc2ccc(C(=O)N(C)CCC(=O)O)cc2)C2CCCCC2)oc2ccc(OC3CCSCC3)cc12` (stereo not shown) [Example A160, 3-[{[4-({cyclohexyl[3-methyl-5-(tetrahydro-2H-thiopyran-4-yloxy)-1-benzofuran-2-yl]methyl}amino)phenyl]carbonyl}(methyl)amino]propanoic acid] here?
The inhibition at 10 µM was 92%.

Which inhibition at 10 µM does the source give for `Cn1c(C(Nc2ccc(C(=O)NCCC(=O)O)cc2)C2CCCCC2)nc2ccccc21` (stereo not shown) [Example A3, 3-{[(4-{[cyclohexyl(1-methyl-1H-benzimidazol-2-yl)methyl]amino}phenyl)carbonyl]amino}propanoic acid] here?
The inhibition at 10 µM was 55%.

For `COc1ccc(-n2cc(C(Nc3ccc(C(=O)NCCC(=O)O)cc3)C3CCCCC3)c(C)n2)cc1` (stereo not shown) [Example 23, 3-({[4-({cyclohexyl[1-(4-methoxyphenyl)-3-methyl-1H-pyrazol-4-yl]methyl}amino)phenyl]carbonyl}amino)propanoic acid], which inhibition at 10 µM is on record?
The inhibition at 10 µM was 71%.

For `Cc1c(C(Nc2ccc(C(=O)N(C)CCC(=O)O)cc2)C2CCCCC2)oc2ccc(OCc3ccnc(F)c3)cc12` (stereo not shown) [Example A168, 3-[({4-[(cyclohexyl{5-[(2-fluoropyridin-4-yl)methoxy]-3-methyl-1-benzofuran-2-yl}methyl)amino]phenyl}carbonyl)(methyl)amino]propanoic acid], which inhibition at 10 µM is on record?
The inhibition at 10 µM was 90%.

How did the inhibition at 10 µM turn out when `Cc1c(C(Nc2ccc(C(=O)N(C)CCC(=O)O)cc2)C2CCCCC2)sc2ccncc12` (stereo not shown) [Example A139, 3-{[(4-{[cyclohexyl(3-methylthieno[3,2-c]pyridin-2-yl)methyl]amino}phenyl)carbonyl](methyl)amino}propanoic acid] was run?
The inhibition at 10 µM was 76%.

How did the inhibition at 10 µM turn out when `COCc1nn(-c2ccc(C(F)(F)F)cn2)cc1C(Nc1ccc(C(=O)NCCC(=O)O)cc1)C1CCCCC1` (stereo not shown) [Example 29, 3-[({4-[(cyclohexyl{3-(methoxymethyl)-1-[5-(trifluoromethyl)pyridin-2-yl]-1H-pyrazol-4-yl}methyl)amino]phenyl}carbonyl)amino]propanoic acid] was run?
The inhibition at 10 µM was 77%.

For `Cc1c(C(Nc2ccc(C(=O)N(C)CCC(=O)O)cc2)C2CCCCC2)oc2ccc(OCc3ccc(Cl)nc3)cc12` (stereo not shown) [Example A170, 3-{[(4-{[{5-[(6-chloropyridin-3-yl)methoxy]-3-methyl-1-benzofuran-2-yl}(cyclohexyl)methyl]amino}phenyl)carbonyl](methyl)amino}-propanoic acid], which inhibition at 10 µM is on record?
The inhibition at 10 µM was 89%.

`Cc1c(C(Nc2ccc(C(=O)NCCC(=O)O)cc2)C2CCCCC2)oc2cccc(F)c12` (stereo not shown) [Example A161, 3-{[(4-{[cyclohexyl(4-fluoro-3-methyl-1-benzofuran-2-yl)methyl]amino}phenyl)carbonyl]amino}propanoic acid] was tested. Which inhibition at 10 µM did it give?
The inhibition at 10 µM was 84%.

`CC(C)Oc1nn(-c2ccc(OC(F)(F)F)cc2)cc1C(Nc1ccc(C(=O)N(C)CCC(=O)O)cc1)C1CCCCC1` (stereo not shown) [Example 65, 3-[({4-[(cyclohexyl{3-(1-methylethoxy)-1-[4-(trifluoromethoxy)phenyl]-1H-pyrazol-4-yl}methyl)amino]phenyl}carbonyl)(methyl)amino]propanoic acid] was tested. Which inhibition at 10 µM did it give?
The inhibition at 10 µM was 64%.
